≈ marks a conversion by molar mass, not a printed value.
Experiments:
[1] = test system: Candida auris CDC B11903; test: Broth microdilution, C. auris CDC B11903; format: cell-based; settings: Ca B11903
Procedure, shortened: (§1)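 EUCAST broth microdilution with twofold dilutions from a 1000 µg/mL starting solution, in Mueller-Hinton broth for B. cereus or Mueller-Hinton plus 2% glucose for Candida. Inoculum was a 10-fold diluted 0.5 McFarland suspension. After 18 ± 2 h at 35 ± 2 °C, MIC was read by A570; MBC/MFC by subculture showing 99.9% kill.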

[2] = test system: Candida parapsilosis ATCC 22019; test: Broth microdilution, C. parapsilosis ATCC 22019; format: cell-based; settings: Cp 22019
Procedure, shortened: as §1

[3] = test system: Staphylococcus aureus ATCC 6538; test: Broth microdilution, S. aureus ATCC 6538; format: cell-based; settings: Sa 6538
Procedure, shortened: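 MIC: A570 after 18 ± 2 h, 35 ± 2 °C. Medium: MH broth (bacterium) or MH + 2% glucose (yeasts). Serial 2-fold dilutions of compound, top solution 1000 µg/mL. Inoculum: 0.5 McFarland suspension diluted 10×. MBC/MFC: subculture onto MHA or MHA + 2% glc, 99.9% growth inhibition.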

[4] = test system: Micrococcus luteus ATCC 10240; test: Broth microdilution, M. luteus ATCC 10240; format: cell-based; settings: Ml 10240
Procedure, shortened: (§2)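 Compounds are diluted twofold, starting at 1000 µg/mL, in Mueller-Hinton medium, supplemented with 2% glucose for the yeast strains. Wells then receive a tenfold-diluted 0.5 McFarland inoculum and incubate 18 ± 2 h at 35 ± 2 °C. Absorbance at 570 nm gives the MIC.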

[5] = test system: Gram-positive bacteria; test: Broth microdilution, Gram-positive bacteria; format: cell-based; settings: strains as named in the sentence
Description: The antibacterial activity of the obtained thiosemicarbazides and hydrazide–hydrazones was determined by evaluating their ability to inhibit microbial growth in vitro using the broth microdilution method, according to the guidelines of the European Committee on Antimicrobial Susceptibility Testing (EUCAST). The method involved the preparation of microbial suspensions with a standardized density of 0.5 on the McFarland scale (equivalent to 1.5 × 10^8 colony-forming units/mL for bacteria and […] for fungi). A solution of the test substances was then prepared (initial concentration 1000 µg/mL, diluted in sterile Mueller-Hinton broth for bacteria or Mueller-Hinton with 2% glucose for fungi). The test was carried out in 96-well polystyrene flat-bottom plates (Medlab, Poland) with 100 µL of appropriate sterile microbiological medium in each well. […] After incubation, the spectrophotometric absorbance at 570 nm in each well of the plate was read. […] The MBC value was determined by adding 5 µL of the contents of each well of the plate to solid sterile MHA or MHA + 2%glc medium for bacteria and fungi, respectively. […] In addition, the quotient MBC(MFC)/MIC could be determined to assess the nature of the activity of the test substance. […]

[6] = test system: Candida glabrata ATCC 15126; test: Broth microdilution, C. glabrata ATCC 15126; format: cell-based; settings: Cg 15126
Procedure, shortened: as §1

[7] = test system: Candida spp.; test: Broth microdilution, Candida spp.; format: cell-based; settings: range over both strains and the listed compounds
Description: The antibacterial activity of the obtained thiosemicarbazides and hydrazide–hydrazones was determined by evaluating their ability to inhibit microbial growth in vitro using the broth microdilution method, according to the guidelines of the European Committee on Antimicrobial Susceptibility Testing (EUCAST). The method involved the preparation of microbial suspensions with a standardized density of 0.5 on the McFarland scale (equivalent to 1.5 × 10^8 colony-forming units/mL for bacteria and […] for fungi). A solution of the test substances was then prepared (initial concentration 1000 µg/mL, diluted in sterile Mueller-Hinton broth for bacteria or Mueller-Hinton with 2% glucose for fungi). The test was carried out in 96-well polystyrene flat-bottom plates (Medlab, Poland) with 100 µL of appropriate sterile microbiological medium in each well. The first wells were filled with 200 µL of the test substance, diluted to the initial concentration, and then double-decreasing dilutions were made under aseptic conditions using an automatic pipette. The final step was the addition of a 10-fold diluted microbial suspension of 2 µL. At the same time, the following controls were included: (a) medium control (100 µL of sterile medium without microorganisms added), (b) microbial viability control, (c) test substance control (dilutions without added micro-organisms), (d) positive control of the drug used in the clinic. The plates thus prepared were incubated for 18 ± 2 h at 35 ± 2 °C under conditions optimal for the growth of the test microorganisms. After incubation, the spectrophotometric absorbance at 570 nm in each well of the plate was read. The aim of this part of the study was to determine two parameters: the minimum inhibitory concentration (MIC) and the minimum bactericidal or fungicidal concentration (MBC/MFC) of the test compound. […] The MBC value was determined by adding 5 µL of the contents of each well of the plate to solid sterile MHA or MHA + 2%glc medium for bacteria and fungi, respectively. The area on the plate where 99.9% inhibition of microbial growth was observed indicated the lethal concentration. In addition, the quotient MBC(MFC)/MIC could be determined to assess the nature of the activity of the test substance. If MBC(MFC)/MIC was <4, the test substance was bactericidal/fungicidal, whereas if MBC(MFC)/MIC was ≥4, it was bacteriostatic/fungistatic. Amoxicillin (Glentham Life Sciences, USA) and nystatin (Glentham Life Sciences, USA) were used as the controls for this assay.
The test was performed either on bacteria, comprising: Gram-positive (Staphylococcus aureus ATCC 25923, Staphylococcus aureus ATCC 6538, Staphylococcus aureus ATCC 43300 methicillin-resistant MRSA, Staphylococcus epidermidis ATCC 12228, Micrococcus luteus ATCC 10240, Bacillus subtilis ATCC 6633, Bacillus cereus ATCC 10876) and Gram-negative (Escherichia coli ATCC 25922, Pseudomonas aeruginosa ATCC 27853, Proteus mirabilis ATCC 12453, Klebsiella pneumoniae ATCC 13883) or yeast (Candida parapsilosis ATCC 22019, Candida glabrata ATCC 90030, Candida krusei ATCC 14243, Candida glabrata ATCC 15126, Candida tropicalis ATCC 1369, Candida auris CDC B11903, Candida lusitaniae ATCC 3449) reference strains from the American Type Culture Collection (ATCC) or the Centers for Disease Control and Prevention (CDC).

[8] = test system: Candida glabrata ATCC 90030; test: Broth microdilution, C. glabrata ATCC 90030; format: cell-based; settings: Cg 90030
Procedure, shortened: as §1

[9] = test system: Staphylococcus epidermidis ATCC 12228; test: Broth microdilution, S. epidermidis ATCC 12228; format: cell-based; settings: Se 12228
Procedure, shortened: as §2

[10] = test system: Bacillus cereus ATCC 10876; test: Broth microdilution, B. cereus ATCC 10876; format: cell-based; settings: Bc 10876
Procedure, shortened: as §1

[11] = test system: Candida lusitaniae ATCC 3449; test: Broth microdilution, C. lusitaniae ATCC 3449; format: cell-based; settings: Cl 3449
Procedure, shortened: as §1

[12] = test system: Candida tropicalis ATCC 1369; test: Broth microdilution, C. tropicalis ATCC 1369; format: cell-based; settings: Ct 1369
Procedure, shortened: as §1

[13] = test system: Staphylococcus aureus ATCC 43300 methicillin-resistant MRSA; test: Broth microdilution, S. aureus ATCC 43300 MRSA; format: cell-based; settings: Sa 43300 MRSA
Procedure, shortened: as §2

[14] = test system: Staphylococcus aureus ATCC 25923; test: Broth microdilution, S. aureus ATCC 25923; format: cell-based; settings: Sa 25923
Procedure, shortened: as §2

[15] = test system: Bacillus subtilis ATCC 6633; test: Broth microdilution, B. subtilis ATCC 6633; format: cell-based; settings: Bs 6633
Procedure, shortened: as §2

[16] = test system: Candida krusei ATCC 14243; test: Broth microdilution, C. krusei ATCC 14243; format: cell-based; settings: Ck 14243
Procedure, shortened: as §1

[17] = test system: normal and cancer cell lines; test: MTT assay, normal and cancer cell lines; format: cell-based, human; settings: in words, 1 to 100 µM, 24 h
Description: Colon cancer (SW480), breast adenocarcinoma (MDA-MB-231), lung carcinoma (A-549), prostate cancer (PC3), and immortal keratinocyte (HaCaT) cell lines of human origin were acquired from the American Type Culture Collection (ATCC). The recommended culture media and protocols provided by ATCC were as follows: SW480 were cultured in Minimum Essential Medium (MEM), MDA-MB-231, A-549, and HaCaT cells were cultured in Dulbecco’s Modified Eagle Medium (DMEM), while PC3 was cultured in Roswell Park Memorial Institute Medium (RPMI). The culture media were supplemented with 10% fetal bovine serum (FBS), penicillin (100 U/mL), and streptomycin (100 μg/mL). Cells were maintained in a humidified incubator at 37 °C with 5% CO2. Passaging was carried out upon reaching 80–90% confluence using 0.25% trypsin (Gibco Life Technologies, New York, NY, USA) treatment prior to experimentation.
Cell viability was assessed utilizing the MTT assay, which relies on the conversion of 3-(4,5-dimethylthiazol-2-yl)-2,5-diphenyltetrazolium bromide salt (MTT) to formazan crystals by mitochondrial dehydrogenases in viable cells. […] The absorbance of the resulting solution was measured at 570 nm using a UVM 340 reader (ASYS Hitech GmbH, Seekirchen am Wallersee, Austria). IC50 values were determined using GraphPad software (GraphPad Prism 8 Software).

[18] = <4 bactericidal, ≥4 bacteriostatic

SMILES: Cn1cc([N+](=O)[O-])nc1C(=O)NNC(=S)Nc1ccc(C(F)(F)F)cc1 [Compound 14]
- MIC [1]: >1000 µg/mL
- MIC [2]: >1000 µg/mL
- MBC [3]: 1000 µg/mL (≈ 2580 µM)
- MIC [3]: 62.5 µg/mL (≈ 161 µM)
- MBC [4]: 500 µg/mL (≈ 1290 µM)
- MIC [4]: 62.5 µg/mL (≈ 161 µM)
- MBC/MIC Ratio [4, 18]: 8
- MIC (range or value for several Gram-positive strains) [5]: 31.25 to 62.5 µg/mL
- MIC [6]: >1000 µg/mL
- MBC (range, C. parapsilosis ATCC 22019 and C. tropicalis ATCC 1369) [7]: 500 to 1000 µg/mL
- MIC (range, C. parapsilosis ATCC 22019 and C. tropicalis ATCC 1369) [7]: 62.5 to 1000 µg/mL
- MIC [8]: >1000 µg/mL
- MBC [9]: 500 µg/mL (≈ 1290 µM)
- MIC [9]: 31.25 µg/mL (≈ 80.5 µM)
- MBC/MIC Ratio [9, 18]: 16
- MBC [10]: 250 µg/mL (≈ 644 µM)
- MIC [10]: 31.25 µg/mL (≈ 80.5 µM)
- MBC/MIC Ratio [10, 18]: 8
- MIC [11]: >1000 µg/mL
- MFC [12]: 500 µg/mL (≈ 1290 µM)
- MIC [12]: 500 µg/mL (≈ 1290 µM)
- MFC/MIC Ratio ([12]; <4 fungicidal, ≥4 fungistatic): 1
- MBC [13]: 500 µg/mL (≈ 1290 µM)
- MIC [13]: 62.5 µg/mL (≈ 161 µM)
- MBC [14]: >1000 µg/mL
- MIC [14]: 31.25 µg/mL (≈ 80.5 µM)
- MBC [15]: 31.25 µg/mL (≈ 80.5 µM)
- MIC [15]: 31.25 µg/mL (≈ 80.5 µM)
- MBC/MIC Ratio [15, 18]: 1
- MIC [16]: >1000 µg/mL

SMILES: COc1cc(C=NNC(=O)c2nc([N+](=O)[O-])cn2C)ccc1O [Compound 32, N’-[(4-hydroxy-3-methoxyphenyl)methylidene]-1-methyl-4-nitro-1H-imidazole-2-carbohydrazide]
- cytotoxic potential on normal and cancer cell lines [17]: did not show cytotoxic activity
- melting point: 241 to 243 °C

SMILES: COc1cc(O)ccc1C=NNC(=O)c1nc([N+](=O)[O-])cn1C [Compound 33, N’-[(4-hydroxy-2-methoxyphenyl)methylidene]-1-methyl-4-nitro-1H-imidazole-2-carbohydrazide]
- cytotoxic potential on normal and cancer cell lines [17]: did not show cytotoxic activity
- melting point: 233 to 235 °C

Source: article PMC11243693, “Synthesis and Biological Evaluation of New Compounds with Nitroimidazole Moiety” (Molecules, 2024)
